Source: patent US20250282732A1, “NOVEL ESTERS OF 1,2,3,4,4a,5,6,7,8,9,10,10a-DODECAHYDROBENZO[G]QUINOLIN-6-OL COMPOUNDS AND USES THEREOF” (INTEGRATIVE RESEARCH LABORATORIES SWEDEN AB, priority 2022, published 2025)

What was measured:
Type in all cases: in vivo, rat
Npas4 = Npas4 mRNA tissue levels in brain regions (TaqMan PCR); settings: 60 min after injection; to a greater extent than the prior art compound according to Preparation 4A
Description: (§1) Animals were killed 60 min after the injection of the drugs by decapitation.
(§2) The brains were dissected into a left and a right part. The left part was analyzed for gene expression and dissected into 4 different areas:
(§3) Limbic system (containing nucleus accumbens, most parts of the olfactory tubercle, ventral pallidum and amygdala), striatum, frontal cortex, and hippocampus.
(§4) Total RNA was prepared by RNeasy Plus Universal Tissue Mini Kit (Qiagen).
(§5) RNA pellets were dissolved in RNAse-free water and stored at −80° C. The sample concentration was determined spectrophotometrically by a Nanorop ND-1000.
A two-step reversed transcription was performed by using a SuperScript III kit (Invitrogen). 1 μg of total RNA was reversed transcribed with 5 μl 2× RT Reaction Mix, 1 μl RT Enzyme and the mix volume was adjusted to 10 μl with RNAse-free water. The samples were incubated at 25° C. for 10 mi, 50° C. for 30 mi and finally 85° C. for 5 mi. […]
EGR-1 (Early growth response qRnoCEP0022872) was analyzed in duplex with the reference gene HPRT (hypoxanthine phosphoribosyltransferase qRnoCEP0050840). Npas4 (neuronal PAS domain protein4 qRnoCEP0029461) was analyzed in singleplex. The reference gene Ppia (cyclophilin A peptidyl-propyl cis-trans isomeraseqRnoCIP0050815) was also analyzed in order to quantify gene expression for genes of interest.

Arc mRNA = Arc mRNA tissue levels in brain regions (real-time PCR); settings: SC, 0.3 and 1 μmol/kg; 60 min after injection; vs controls
Description: as §1, §2, §3, §4, §5
A two-step reversed transcription was performed by using a SuperScript III kit (Invitrogen). 1 μg of total RNA was reversed transcribed with 5 μl 2× RT Reaction Mix, 1 μl RT Enzyme and the mix volume was adjusted to 10 μl with RNAse-free water. The samples were incubated at 25° C. for 10 mi, 50° C. for 30 mi and finally 85° C. for 5 mi. 1 U of E. coli RNase H was added following incubation at 37° C. for 20 mi and 85° C. for 5 minutes. The cDNA solution was diluted 40 times in Tris EDTA buffer solution pH8 (Merck) and stored at −20° C.
Three sequences (arc and two reference genes) were amplified together in a triplex PCR-reaction. For real-time PCR measurements: 5 μl of the cDNA reaction was amplified in a 20 μl reaction mixture containing 10 μl PerfeCTa MultiPlex qPCR SuperMix (Quantabio), 3.5 μl RNAse-free water, 0.15 μM of each primer and 0.1 μM of each probe. Real-time PCR was measured on CFX96 (Bio-Rad) using the following settings for all genes: 3 mi pre-incubation at 95° C. followed by 40 cycles of denaturation at 95° C. for 15s, annealing and elongation at 60° C. for 1 mi. […]
FIG. 5 illustrates the effects on tissue levels of Arc mRNA in four different regions of the brain (limbic regions, striatum, frontal cortex and hippocampus) after subcutaneous administration of two different compounds at two different doses as in comparison to that of corresponding control experiments. The bars in the left half of the figure represent the effects on ARC by the prior art compound according to Preparation 4A ((4aR,10aR)-1-propyl-1,2,3,4,4a,5,8,9,10,10a-decahydrobenzo[g]quinolin-6(7H)-one) and the bars in the right half of the figure represent the effects on ARC by the compound of the present disclosure according to Example 5 oxalic acid salt of ((4aR,10aR)-1-propyl-1,2,3,4,4a,5,6,7,8,9,10,10a-dodecahydrobenzo[g]quinolin-6-yl acetate (Mixture of 6R and 6S epimers). The effects on tissue levels of Arc by both of the two aforementioned compounds were measured at two different doses (0.3 μmol/kg and 1 μmol/kg) and the effect is presented as percent of control means±SEM. Statistical significance was assessed using Student's t-test (2 tailed) vs controls.

[1] = tested on: non-pre-treated Sprague-Dawley rats; experiment: Spontaneous locomotor activity (distance travelled); settings: for effect on motor activity patterns (distance travelled): 0.3 μmol/kg single dose, Preparation 4A SC, Example 5 PO and SC, vs saline, 0-180 min post dosing; for on-set of action (distance travelled increases after the initial decrease): time after administration
Description: Behavioral activity was measured using eight Digiscan activity monitors (RXYZM (16) TAO, Omnitech Electronics, Columbus, OH, USA), connected to an Omnitech Digiscan analyzer and an Apple Macintosh computer equipped with a digital interface board (NB DIO-24, National Instruments, USA). Each activity monitor consisted of a quadratic metal frame (W×L=40 cm×40 cm) equipped with photo beam sensors. During measurements of behavioral activity, a rat was put in a transparent acrylic cage (W×L×H, 40×40×30 cm) which in turn was placed in the activity monitor. Each activity monitor was equipped with three rows of infrared photo beam sensors, each row consisting of 16 sensors. Two rows were placed along the front and the side of the floor of the cage, at a 90° angle, and the third row was placed 10 cm above the floor to measure vertical activity. Photo beam sensors were spaced 2.5 cm apart. Each activity monitor was fitted in an identical sound and light attenuating box containing a weak house light and a fan. The computer software was written using object-oriented programming (LabVIEW™, National instruments, Austin, TX, USA). Behavioral data from each activity monitor, representing the position (horizontal center of gravity and vertical activity) of the animal at each time, were recorded at a sampling frequency of 25 Hz and collected using a custom written LABView™ application. The data from each recording session were stored and analyzed with respect to distance traveled. Each behavioral recording session lasted 180 min, starting approximately 5 min after the injection of test compound.
Compounds disclosed herein have been tested for effects on spontaneous locomotor activity in non-pre-treated Sprague-Dawley rats (based on accumulated distance travelled 0-180 min post dosing), and with the single dose of 0.3 μmol/kg (n=5, SC) compared to a control group of animals (n=5) that obtained saline (SC). The prior art compound according to Preparation 4A was administered subcutaneously (SC). The compound according to Example 5 was administered perorally (PO) and subcutaneously (SC), respectively. The unit of the distance travelled is an arbitrary unit.
The animals were placed in the motility meters immediately after administration and locomotor activity was recorded for 180 minutes. Results are presented as distance travelled for the control group (empty bar) and for the group of animals that obtained the drug (filled bar).
The animals were placed in the motility meters immediately after administration and locomotor activity was recorded for 180 minutes. Results are presented as distance travelled for the control group (empty bars) and for the group of animals that obtained the drug (filled bar).

Row | Structure (SMILES) | tissue levels of Npas4 in the limbic regions (Npas4) | tissue levels of Arc in the frontal cortex (Arc mRNA) | tissue levels of Arc in the limbic regions (Arc mRNA) | effect on motor activity patterns (distance travelled) [1] | duration of action as compared to the prior art compound (trend) ([1]; 0.3 μmol/kg, increase in desired effect observed much later in the experiment) | on-set of action (distance travelled increases after the initial decrease) ([1]; 0.3 μmol/kg) [min] | immediate effect on motor activity: long distance travelled already within ([1]; 0.3 μmol/kg SC) [min]
1 | CCCN1CCC[C@@H]2CC3=C(CCCC3OC(C)=O)C[C@H]21.O=C(O)C(=O)O (stereo partly drawn) [Example 5, (4aR,10aR)-1-propyl-1,2,3,4,4a,5,6,7,8,9,10,10a-dodecahydrobenzo[g]quinolin-6-yl acetate] | increases tissue levels | dose-dependently increase | dose-dependently increases | induce hyperactivity | longer duration of action | 35 to 40 | –
2 | CCCN1CCC[C@@H]2CC3=C(CCCC3=O)C[C@H]21 [Preparation 4A, (4aR,10aR)-1-propyl-1,2,3,4,4a,5,8,9,10,10a-decahydrobenzo[g]quinolin-6(7H)-one, reference compound] | – | dose-dependently increase | does not have | induce hyperactivity | – | 20 to 25 | 20 to 45
